From article PMC10257182, “Discovery of senolytics using machine learning” (Nature Communications, 2023)
Where “and” joins values, the source holds several entries; their conditions need not be identical. Equal values may be shown once. Values belong to the compound of their own block, whether it stands above or below them.

Legend:
Assay type in all cases: cell-based, human
[1] = system: proliferating IMR90 cells; assay: BrdU incorporation proliferation assay; settings: IMR90 cells; single replicates (SUP FIG 9G)
Description: 5-bromo-2′-deoxyuridine (BrdU) incorporation was used to measure the number of cells actively replicating DNA. Cells were incubated with 10 μM BrdU (85811, Sigma) for 18 h. After that, cells were fixed with 4% Paraformaldehyde, permeabilised, blocked and then stained for immunofluorescence using BrdU primary antibody (555627 BD Pharmigen), Alexa fluor secondary for detection, and DAPI staining for cell counting. Acquisition was done with a Nikon TI2 microscope and analysis was performed with ImageJ for cell counting.

[2] = system: p16 and p21 mRNA in IMR90 ER:RAS cells; assay: p16 and p21 mRNA expression by RT-qPCR, OIS; settings: ER:RAS cells; ER:RAS DMSO = 1; n 4
Description: (§1) Total RNA was isolated using RNAeasy kit (Quiagen). cDNA was generated with reverse transcriptase iScript (Bio-Rad). RT-qPCR was performed using SYBR Select Master Mix (Applied Biosystems) in OneStepPlus detection system (Applied Biosystems). Oligos for amplification were: NOXA Fw-[…] and Rv-[…]; b-ACTIN Fw-[…] and Rv-[…]; IL1a Fw-[…] and Rv- […]; IL1b Fw-[…] and Rv- […]; IL8 Fw-[…] and Rv-[…]; p16 Fw-CGGTCGGAGGCCGATCCAG and Rv- […]; p21Fw-[…] and Rv- […].

[3] = system: p16 and p21 mRNA in IMR90 cells at passage 27; assay: p16 and p21 mRNA expression by RT-qPCR, replicative senescence; settings: Replicative senescence; Replicative senescence DMSO = 1; n 3
Description: as §1

[4] = system: IL1α, IL1β and IL8 mRNA in IMR90 ER:RAS cells; assay: IL1α, IL1β and IL8 mRNA expression by RT-qPCR, OIS; settings: ER:RAS cells, RAS OLE group mean, RAS C (DMSO) = 1
Description: as §1

[5] = system: IL1α, IL1β and IL8 mRNA in IMR90 cells at passage 27; assay: IL1α, IL1β and IL8 mRNA expression by RT-qPCR, replicative senescence; settings: Replicative senescence, OLE group mean, DMSO = 1
Description: as §1

[6] = system: senescent A549 cells (etoposide-induced); assay: Nuclei count senolytic assay, therapy-induced senescence (TIS) model, senescent cells; settings: for % Cell Survival: senescence cells, single replicate
Description: (§2) We performed a second validation of the effectiveness of our machine learning models using a different stressor. We focused on therapy-induced senescence (TIS, Supplementary Fig. 6a), where human epithelial cancerous cells (A549) were induced to become senescent by addition of etoposide. Cells were treated with 100 μM etoposide for 48 h, followed by another three days of exposure to media in standard conditions.
(§3) We performed experimental validation of the compounds with z-score > 8 (Fig. 2e). […] We employed two cellular models of senescence: one of OIS and a second one of TIS. For the OIS case, we utilised IMR90 ER:RAS cells with 4-OHT at 100 nM. […] For the TIS model, we used A549 cells with etoposide at 100 μM. The exposure of the cells to etoposide lasted 48 h, after which period the cells were cultivated for a further three days with normal media.
(§4) IMR90 (CCL-186) human foetal lung fibroblasts and A549 (CCL-185) human lung adenocarcinoma cells were obtained from the American Type Culture Collection (ATCC, Manassas, VA). The cell lines were confirmed to be mycoplasma negative (Lonza MycoAlert, cat #LT07-118). IMR90 ER:RAS is a derivative of IMR90 cells expressing a switchable version of oncogenic H-Ras[84]. IMR90 ER:RAS and A549 cells were maintained in Dulbecco’s Modified Eagle Medium (DMEM, ThermoFisher) supplemented with foetal bovine serum (10%), L-glutamine (2 mM, ThermoFisher), and antibiotic-antimycotic solution (1%, ThermoFisher) and incubated under standard tissue culture conditions (37 °C and 5% CO2). For induction of the senescent phenotype, IMR90-ER:RAS cells were cultured in hydroxytamoxifen (4-OHT) (Sigma) added media at 100 nM final concentration. IMR90 were kept in culture for over 27 passages for replicative senescence. Cells were tested for mycoplasma on a regular basis.
(§5) Cells were seeded (50 μL per well) into 384-well plates (IMR90 ER:RAS cells in Nunc Optical Bottom Polybase Microplates [#142761, Thermo Scientific, Rochester, NY] and A549 cells in CELLSTAR Cell Culture Microplates [#781091, Greiner Bio-One, Kremsmünster, Austria]). Cells were incubated under standard tissue culture conditions for 24 h before the addition of compounds. Passage 14 IMR90 ER:RAS cells were seeded at 1300 cells per well in the control condition, and at 1600 cells per well in the senescent case. Passage 34 A549 cells were seeded at 7000 cells per well in the control condition, and at 10,000 cells per well in the senescent case.
(§6) Dose response plates were prepared with a DMSO control and a 10-point […] concentration range, and added to the compounds using a D300e digital dispenser (Tecan Trading AG, Switzerland) at a final concentration of between 10 μM and 10 nM. Every screened condition was carried out in triplicate. After 72 h of incubation with exposure to the compounds, cells were fixed by the addition of an equal volume of formaldehyde (8%, 50 μL; #BP531-500, Fisher Bioreagents, Fisher Scientific, Loughborough, Leicestershire) to the existing media, incubated at room temperature (30 min), and washed three times in phosphate-buffered saline (PBS). Cells were then permeabilised in Triton-X100 (0.1%, 50 μL) and incubated at room temperature (30 min) followed by three more washes with PBS.
(§7) Cells were stained with Hoechst 33342 for nuclei count (excitation/emission wavelength at 387/447 […], DAPI channel, original concentration at 10 mg/ml, final concentration at 2 μg/ml; H1399, Molecular Probes, Eugene, OR). The staining solution was prepared in bovine serum albumin solution (10%). The staining solution was added to each well (30 μL) and incubated in the dark at room temperature (30 min), followed by three washes with PBS and no final aspiration. Plates were foil sealed.
(§8) Plates were imaged on an ImageXpress micro XLS (Molecular Devices, Eugene, OR) equipped with a robotic plate loader (Scara4, PAA, UK).

[7] = system: non-senescent control A549 cells; assay: Nuclei count senolytic assay, TIS model, non-senescent control cells; settings: for % Cell Survival: control cells, single replicate
Description: as §2, §3, §4, §5, §6, §7, §8

SMILES: COc1cc([C@@H]2c3cc4c(cc3[C@@H](O[C@@H]3O[C@@H]5CO[C@@H](C)O[C@H]5[C@H](O)[C@H]3O)[C@H]3COC(=O)[C@H]23)OCO4)cc(OC)c1O [Etoposide]
% BrdU positive cells [1]: 3.24% and 11.47% and 6.41% and 6.29%

SMILES: COC1CC(OC2CCC3(C)C(CCC4C3CCC3(C)C(C5=CC(=O)OC5)C(OC(C)=O)CC43O)C2)OC(C)C1O (stereo not drawn) [OLE]
p16 mRNA expression, mean (Test details, Mean 2) [2]: 0.5169
p21 mRNA expression, mean (Test details, Mean 2) [2]: 0.5115
p16 mRNA expression, mean (Test details, Mean 2) [3]: 0.5298
p21 mRNA expression, mean (Test details, Mean 2) [3]: 0.4442
Il1a mRNA expression, mean (Mean 2) ([4]; n=4): 0.4376
Il8 mRNA expression, mean (Mean 2) ([4]; n=5): 0.3662
Il1b mRNA expression, mean (Mean 2) ([4]; n=6): 0.7128
Il1a mRNA expression, mean (Mean 2) ([5]; n=3): 0.411
Il8 mRNA expression, mean (Mean 2) ([5]; n=3): 0.5871
Il1b mRNA expression, mean (Mean 2) ([5]; n=4): 0.4327

IC50 ([6]; Homo sapiens, TIS model, etoposide-induced senescent A549, nuclei count, 72 h): 0.44 µM
IC50 ([7]; Homo sapiens, TIS model, non-senescent A549, nuclei count, 72 h): 10.2 µM
SMILES: CC1(C)CCC(c2ccc(Cl)cc2)=C(CN2CCN(c3ccc(C(=O)NS(=O)(=O)c4ccc(N[C@H](CCN5CCOCC5)CSc5ccccc5)c(S(=O)(=O)C(F)(F)F)c4)cc3)CC2)C1 [navitoclax, reference compound]
viability at 10 µM ([6]; Homo sapiens, A549, log (dose) [M] -5, Senescent cells, mean, read-out: Mean % Cell Survival): 6.32%
viability at 4.68 µM ([6]; Homo sapiens, A549, log (dose) [M] -5.33, Senescent cells, mean, read-out: Mean % Cell Survival): 13.6%
viability at 2.19 µM ([6]; Homo sapiens, A549, log (dose) [M] -5.66, Senescent cells, mean, read-out: Mean % Cell Survival): 17.1%
viability at 1 µM ([6]; Homo sapiens, A549, log (dose) [M] -6, Senescent cells, mean, read-out: Mean % Cell Survival): 27.7%
viability at 0.468 µM ([6]; Homo sapiens, A549, log (dose) [M] -6.33, Senescent cells, mean, read-out: Mean % Cell Survival): 43.7%
viability at 0.219 µM ([6]; Homo sapiens, A549, log (dose) [M] -6.66, Senescent cells, mean, read-out: Mean % Cell Survival): 65.4%
viability at 0.1 µM ([6]; Homo sapiens, A549, log (dose) [M] -7, Senescent cells, mean, read-out: Mean % Cell Survival): 94%
viability at 0.0468 µM ([6]; Homo sapiens, A549, log (dose) [M] -7.33, Senescent cells, mean, read-out: Mean % Cell Survival): 91.8%
viability at 0.0219 µM ([6]; Homo sapiens, A549, log (dose) [M] -7.66, Senescent cells, mean, read-out: Mean % Cell Survival): 109%
viability at 0.01 µM ([6]; Homo sapiens, A549, log (dose) [M] -8, Senescent cells, mean, read-out: Mean % Cell Survival): 103%
concentration at which a senolytic effect was reached ([6]; TIS A549, Hoechst labelling, marginal or no effect on normal cells): 1 µM
% Cell Survival ([6]; log (dose) [M] -5): 4.269% and 4.259% and 10.4231%
% Cell Survival ([6]; log (dose) [M] -5.33): 11.4818% and 14.3371% and 14.9601%
% Cell Survival ([6]; log (dose) [M] -5.66): 15.9961% and 17.9964% and 17.29%
% Cell Survival ([6]; log (dose) [M] -6): 23.7488% and 24.4151% and 34.8866%
% Cell Survival ([6]; log (dose) [M] -6.33): 46.0255% and 39.6521% and 45.3096%
% Cell Survival ([6]; log (dose) [M] -6.66): 63.9352% and 60.5879% and 71.5512%
% Cell Survival ([6]; log (dose) [M] -7): 88.2728% and 86.8026% and 106.99%
% Cell Survival ([6]; log (dose) [M] -7.33): 62.8557% and 104.139% and 108.461%
% Cell Survival ([6]; log (dose) [M] -7.66): 92.002% and 113.377% and 120.969%
% Cell Survival ([6]; log (dose) [M] -8): 100.736% and 105.159% and 103.556%
viability at 10 µM ([7]; Homo sapiens, A549, log (dose) [M] -5, Control cells, mean, read-out: Mean % Cell Survival): 61.6%
viability at 4.68 µM ([7]; Homo sapiens, A549, log (dose) [M] -5.33, Control cells, mean, read-out: Mean % Cell Survival): 105%
viability at 2.19 µM ([7]; Homo sapiens, A549, log (dose) [M] -5.66, Control cells, mean, read-out: Mean % Cell Survival): 107%
viability at 1 µM ([7]; Homo sapiens, A549, log (dose) [M] -6, Control cells, mean, read-out: Mean % Cell Survival): 129%
viability at 0.468 µM ([7]; Homo sapiens, A549, log (dose) [M] -6.33, Control cells, mean, read-out: Mean % Cell Survival): 116%
viability at 0.219 µM ([7]; Homo sapiens, A549, log (dose) [M] -6.66, Control cells, mean, read-out: Mean % Cell Survival): 109%
viability at 0.1 µM ([7]; Homo sapiens, A549, log (dose) [M] -7, Control cells, mean, read-out: Mean % Cell Survival): 97.7%
viability at 0.0468 µM ([7]; Homo sapiens, A549, log (dose) [M] -7.33, Control cells, mean, read-out: Mean % Cell Survival): 98.7%
viability at 0.0219 µM ([7]; Homo sapiens, A549, log (dose) [M] -7.66, Control cells, mean, read-out: Mean % Cell Survival): 96.8%
viability at 0.01 µM ([7]; Homo sapiens, A549, log (dose) [M] -8, Control cells, mean, read-out: Mean % Cell Survival): 98.9%
% Cell Survival ([7]; log (dose) [M] -5): 52.0394% and 75.3687% and 57.3758%
% Cell Survival ([7]; log (dose) [M] -5.33): 116.878% and 75.1475% and 123.277%
% Cell Survival ([7]; log (dose) [M] -5.66): 112.518% and 117.404% and 91.8458%
% Cell Survival ([7]; log (dose) [M] -6): 119.058% and 135.177% and 132.987%
% Cell Survival ([7]; log (dose) [M] -6.33): 128.692% and 108.112% and 112.083%
% Cell Survival ([7]; log (dose) [M] -6.66): 114.276% and 101.991% and 109.489%
% Cell Survival ([7]; log (dose) [M] -7): 92.6864% and 99.5575% and 100.964%
% Cell Survival ([7]; log (dose) [M] -7.33): 97.6793% and 98.2301% and 100.074%
% Cell Survival ([7]; log (dose) [M] -7.66): 95.0774% and 99.4838% and 95.7746%
% Cell Survival ([7]; log (dose) [M] -8): 98.1716% and 98.2301% and 100.445%
